Here are results for 2 molecules from ChEMBL document CHEMBL1127735, “Importance of parallel vectors and "hydrophobic collapse" of the aligned aromatic rings: discovery of a potent substance P antagonist” (J Med Chem, 1994).

Molecules are shown by their SMILES.

As a reminder, the Ki is a measure of affinity in units of concentration, obtained from inhibition or displacement. A higher Ki goes with lower affinity.

The target of the assay is Substance-P receptor (Homo sapiens, UniProt P25103). Kind of assay: In vitro binding affinity against substance P (NK-1) receptor in human IM-9 cell using [125I]BH-SP. It is filed as cell-based.
Sequence of Substance-P receptor (P25103 whole entry): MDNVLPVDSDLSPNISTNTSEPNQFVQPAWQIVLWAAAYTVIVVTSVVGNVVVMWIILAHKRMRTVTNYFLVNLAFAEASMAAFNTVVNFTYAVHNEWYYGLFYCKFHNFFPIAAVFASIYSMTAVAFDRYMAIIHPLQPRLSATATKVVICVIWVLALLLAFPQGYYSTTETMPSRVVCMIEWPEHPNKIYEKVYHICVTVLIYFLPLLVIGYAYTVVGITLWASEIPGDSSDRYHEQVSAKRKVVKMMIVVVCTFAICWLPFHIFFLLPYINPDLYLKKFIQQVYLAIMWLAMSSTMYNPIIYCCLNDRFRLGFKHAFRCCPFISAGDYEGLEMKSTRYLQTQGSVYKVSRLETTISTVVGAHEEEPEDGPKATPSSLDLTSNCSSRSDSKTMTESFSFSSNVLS

Regarding `COc1ccccc1[C@@H]1CC[C@@]2(CCCN[C@H]2c2ccccc2)NC1`, the inhibition constant Ki came to 2 nM.

`COc1ccccc1[C@@H]1CC[C@@]2(CCCN[C@H]2c2ccccc2)N1` yielded a Ki of over 10000 nM.
